Experimental findings from patent US20240246950A1, “Anilino-Pyrazole Derivatives, Compositions and Methods Thereof” (Ensem Therapeutics, priority 2022, published 2024) are described below.

Bounds are passed on as bounds.

The target in assay [1] is GSK3β (Homo sapiens, UniProt P49841). As to the kind of experiment: In vitro kinase TR-FRET assay GSK3β. It is filed as biochemical. To be noted: enzyme 0.6 nM, ATP 7.6 μM. Summed up: (§1)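 Enzymes at 3 nM (CDK2/CycA2), 0.6 nM (CDK2/CycE1), 0.3 nM (CDK1/cyclinB), 0.6 nM (GSK3β) with ATP at 27, 82, 56, 7.6 μM respectively, 50 nM ULight-4E-BP1 peptide, HEPES pH7.5; 10-point 3-fold dilutions. 1 h reaction at room temperature; Eu-anti-phospho-4E-BP1 TR-FRET (665/615 nm) read; IC50 from dose-response curves.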
Chain of GSK3β (P49841 whole entry, species assumed): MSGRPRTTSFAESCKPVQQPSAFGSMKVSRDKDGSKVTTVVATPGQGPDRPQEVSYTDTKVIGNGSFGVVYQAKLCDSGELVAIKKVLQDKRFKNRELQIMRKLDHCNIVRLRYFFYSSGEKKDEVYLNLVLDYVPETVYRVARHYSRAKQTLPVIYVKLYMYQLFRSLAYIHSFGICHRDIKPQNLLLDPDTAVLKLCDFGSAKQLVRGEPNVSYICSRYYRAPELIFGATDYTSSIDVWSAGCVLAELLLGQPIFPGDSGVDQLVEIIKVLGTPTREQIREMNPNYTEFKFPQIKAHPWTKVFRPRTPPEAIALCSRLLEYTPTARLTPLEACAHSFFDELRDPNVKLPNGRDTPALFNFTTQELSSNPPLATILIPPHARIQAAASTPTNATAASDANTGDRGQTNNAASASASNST
Background: TR-FRET usually uses a lanthanide donor and a delayed reading to cut background.

The target in assay [2] is CDK1/cyclinB (Homo sapiens, UniProt P06493). As to the kind of experiment: In vitro kinase TR-FRET assay CDK1/cyclinB. In kind it is biochemical. To be noted: enzyme 0.3 nM, ATP 56 μM. The gist of the method:
as §1

Assay [3] concerns OVCAR3. As to the kind of experiment: Cell proliferation (CyQUANT) OVCAR3. In kind it is cell-based. Conditions: Homo sapiens, OVCAR-3, 168 h, OVCAR3, 7 days, read-out: Anti-proliferation assay: IC50 (nM) [Cell Line: OVCAR3]. The protocol: (§2) Cancer cell lines, namely, OVCAR3, TOV21G were seeded onto 96 well cell culture plates at a density of 2500, 1000 or 3000 cells/well, respectively and cultured overnight. Cells treated with test compounds at 3-fold dose titration for 7 days at maximum final DMSO concentration of 0.01%. The CyQUANT® Cell Proliferation Assay, a highly sensitive fluorescence-based method for quantifying cells and assessing cell proliferation and cytotoxicity was employed, following manufacturer's procedure (ThermnoFisher, Cataloge #C35012). Plates were scanned with a laser-based Acumen Cellistra instrument by TTP LabTech at Ex/Em 480/520 nm. % Inhibition is calculated based on DMSO control wells on the same plate (ie, DMSO wells have 100% growth and 0% growth inhibition).

Assay [4] addresses CDK2/CycE1 (Homo sapiens, UniProt P24941). The assay is described as follows: In vitro kinase TR-FRET assay CDK2/CycE1. It is filed as biochemical. Conditions: enzyme 0.6 nM, ATP 82 μM, read-out: CDK2 cyclinE1 activity assay: IC50. Summed up:
as §1

The test system of assay [5] is TOV21G. The assay is described as follows: Cell proliferation (CyQUANT) TOV21G. It is filed as cell-based. Conditions: Homo sapiens, 168 h, 7 days, read-out: Anti-proliferation assay: IC50 (nM) [Cell Line: TOV21G]. The protocol:
as §2

For assay [6], the target named is CDK2/CycA2 (Homo sapiens, UniProt P24941). As to the kind of experiment: In vitro kinase TR-FRET assay CDK2/CycA2. It is filed as biochemical. To be noted: enzyme 3 nM, ATP 27 μM, read-out: CDK2 cyclinA2 activity assay: IC50. The gist of the method: as §1

Chain of CDK1/cyclinB (P06493 whole entry): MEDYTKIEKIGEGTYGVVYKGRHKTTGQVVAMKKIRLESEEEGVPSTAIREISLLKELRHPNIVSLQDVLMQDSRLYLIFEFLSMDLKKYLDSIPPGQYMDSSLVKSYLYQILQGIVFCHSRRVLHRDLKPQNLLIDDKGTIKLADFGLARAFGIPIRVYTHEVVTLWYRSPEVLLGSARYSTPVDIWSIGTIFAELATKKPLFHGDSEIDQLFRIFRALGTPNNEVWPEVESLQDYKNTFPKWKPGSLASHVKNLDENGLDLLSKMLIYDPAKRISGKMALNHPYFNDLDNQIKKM
Chain of CDK1/cyclinB (P14635 whole entry partner): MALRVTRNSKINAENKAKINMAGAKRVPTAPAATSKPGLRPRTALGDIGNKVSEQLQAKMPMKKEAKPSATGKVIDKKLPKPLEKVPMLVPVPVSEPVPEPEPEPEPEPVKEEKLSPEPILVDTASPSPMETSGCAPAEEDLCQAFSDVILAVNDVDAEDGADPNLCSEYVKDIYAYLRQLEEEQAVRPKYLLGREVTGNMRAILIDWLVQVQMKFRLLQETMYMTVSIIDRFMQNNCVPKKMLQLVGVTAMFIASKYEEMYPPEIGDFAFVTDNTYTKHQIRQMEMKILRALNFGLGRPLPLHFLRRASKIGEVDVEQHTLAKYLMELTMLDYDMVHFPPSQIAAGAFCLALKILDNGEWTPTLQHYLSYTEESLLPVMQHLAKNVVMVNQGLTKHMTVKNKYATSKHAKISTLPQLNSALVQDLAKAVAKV

Turning to `CC(C)NC(=O)O[C@@H]1CC[C@H](c2cc(Nc3ccc4c(c3)CC(F)(F)C4)n[nH]2)C1` [Example 32, (1R,3S)-3-(3-((2,2-difluoro-2,3-dihydro-1H-inden-5-yl)amino)-1H-pyrazol-5-yl)cyclopentyl isopropylcarbamate], the IC50 is 500 to 1000 nM in assay [1]; 50 to 500 nM in assay [2]; no more than 500 nM in assay [3]; less than 50 nM in assay [4]; no less than 1000 nM in assay [5]; less than 50 nM in assay [6].
Consider `CC(C)NC(=O)O[C@@H]1CC[C@H](c2cc(Nc3ccc4c(c3)OCCNS4(=O)=O)n[nH]2)C1` [Example 6, (1R,3S)-3-(3-((1,1-dioxido-3,4-dihydro-2H-benzo[b][1,4,5]oxathiazepin-7-yl)amino)-1H-pyrazol-5-yl)cyclopentyl isopropylcarbamate], for which the IC50 in assay [1] is 50 to 500 nM; in assay [2], 50 to 500 nM; in assay [3], no more than 500 nM; in assay [4], less than 50 nM; in assay [5], no less than 1000 nM; in assay [6] it was less than 50 nM.
Take `CC(C)NC(=O)O[C@@H]1CC[C@H](c2cc(Nc3cccc4c3CN(C)S4(=O)=O)n[nH]2)C1` [Example 47, (1R,3S)-3-(3-((2-methyl-1,1-dioxido-2,3-dihydrobenzo[d]isothiazol-4-yl)amino)-1H-pyrazol-5-yl)cyclopentyl isopropylcarbamate]: the IC50 in assay [1] was greater than 1000 nM; in assay [2], 50 to 500 nM; in assay [3], no more than 500 nM; in assay [4] it was less than 50 nM; in assay [5] it was no more than 500 nM; in assay [6], less than 50 nM.
With `CC(C)NC(=O)O[C@@H]1CC[C@H](c2cc(Nc3ccc4c(c3)CCCS4(=O)=O)n[nH]2)C1` [Example 26, (1R,3S)-3-(3-((1,1-dioxidothiochroman-6-yl)amino)-1H-pyrazol-5-yl)cyclopentyl isopropylcarbamate], the IC50 is 50 to 500 nM in assay [1]; 50 to 500 nM in assay [2]; no more than 500 nM in assay [3]; less than 50 nM in assay [4]; no less than 1000 nM in assay [5]; less than 50 nM in assay [6].
In the case of `CC(C)NC(=O)O[C@@H]1CC[C@H](c2cc(Nc3ccc4c(n3)CCS4(=O)=O)n[nH]2)C1` [Example 55, (1R,3S)-3-(3-((1,1-dioxido-2,3-dihydrothieno[3,2-b]pyridin-5-yl)amino)-1H-pyrazol-5-yl)cyclopentyl isopropylcarbamate], the IC50 in assay [1] is 50 to 500 nM; in assay [2], 50 to 500 nM; in assay [3], no more than 500 nM; in assay [4], less than 50 nM; in assay [5], no less than 1000 nM; in assay [6], less than 50 nM.
Consider `CC(C)NC(=O)O[C@@H]1CC[C@H](c2cc(Nc3ccc4c(c3)CS(=O)(=O)C4)n[nH]2)C1` [Example 22, (1R,3S)-3-(3-((2,2-dioxido-1,3-dihydrobenzo[c]thiophen-5-yl)amino)-1H-pyrazol-5-yl)cyclopentyl isopropylcarbamate], for which the IC50 in assay [1] was 500 to 1000 nM; in assay [2], less than 50 nM; in assay [3], no more than 500 nM; in assay [4] it was less than 50 nM; in assay [5], no more than 500 nM; in assay [6], less than 50 nM.
On to `CC(C)NC(=O)O[C@@H]1CC[C@H](c2cc(Nc3ccc4c(c3)NS(=O)(=O)C4)n[nH]2)C1` [Example 38, (1R,3S)-3-(3-((2,2-dioxido-1,3-dihydrobenzo[c]isothiazol-6-yl)amino)-1H-pyrazol-5-yl)cyclopentyl isopropylcarbamate], for which the IC50 is greater than 1000 nM in assay [1]; less than 50 nM in assay [2]; no more than 500 nM in assay [3]; less than 50 nM in assay [4]; no less than 1000 nM in assay [5]; less than 50 nM in assay [6].
With `CC(C)NC(=O)O[C@H]1CC[C@@H](c2cc(Nc3ccc4c(c3)S(=O)(=O)CC4)n[nH]2)CC1` [Example 27, (1s,4s)-4-{5-[(1,1-dioxo-2,3-dihydro-1λ^6-benzo[b]thiophen-6-yl)amino]-2H-pyrazol-3-yl}cyclohexyl (prop-2-ylamino)methanoate], the IC50 in assay [1] was greater than 1000 nM; in assay [2] it was 50 to 500 nM; in assay [3] it was no less than 1000 nM; in assay [4] it was less than 50 nM; in assay [5], no less than 1000 nM; in assay [6], less than 50 nM.
In the case of `CC(C)(C)NC(=O)O[C@@H]1CC[C@H](c2cc(Nc3nccc4c3CCS4(=O)=O)n[nH]2)C1` [Example 68, (1R,3S)-3-(3-((1,1-dioxido-2,3-dihydrothieno[3,2-c]pyridin-4-yl)amino)-1H-pyrazol-5-yl)cyclopentyl tert-butylcarbamate], the IC50 in assay [1] was 50 to 500 nM; in assay [2], less than 50 nM; in assay [3] it was no more than 500 nM; in assay [4], less than 50 nM; in assay [5], no more than 500 nM; in assay [6] it was less than 50 nM.
In the case of `CC(C)NC(=O)O[C@@H]1CC[C@H](c2cc(Nc3ccc(F)c4c3CNS4(=O)=O)[nH]n2)C1` [Example 66, (1R,3S)-3-(5-((7-fluoro-1,1-dioxido-2,3-dihydrobenzo[d]isothiazol-4-yl)amino)-1H-pyrazol-3-yl)cyclopentyl isopropylcarbamate], the IC50 in assay [1] was 50 to 500 nM; in assay [2] it was less than 50 nM; in assay [3], no more than 500 nM; in assay [4], less than 50 nM; in assay [5] it was no less than 1000 nM; in assay [6], less than 50 nM.
As for `CC(C)NC(=O)O[C@@H]1CC[C@H](c2cc(Nc3cccc4c3CS(=O)(=O)CC4)n[nH]2)C1` [Example 63, (1R,3S)-3-(3-((2,2-dioxidoisothiochroman-8-yl)amino)-1H-pyrazol-5-yl)cyclopentyl isopropylcarbamate], the IC50 in assay [1] was greater than 1000 nM; in assay [2], 50 to 500 nM; in assay [3] it was no more than 500 nM; in assay [4], less than 50 nM; in assay [5], no less than 1000 nM; in assay [6], less than 50 nM.
Regarding `CC(C)NC(=O)O[C@@H]1CC[C@H](c2cc(Nc3ccc(Cl)c4c3CCCS4(=O)=O)n[nH]2)C1` [Example 58, (1R,3S)-3-(3-((8-chloro-1,1-dioxidothiochroman-5-yl)amino)-1H-pyrazol-5-yl)cyclopentyl isopropylcarbamate], the IC50 is 500 to 1000 nM in assay [1]; 50 to 500 nM in assay [2]; no more than 500 nM in assay [3]; less than 50 nM in assay [4]; no less than 1000 nM in assay [5]; less than 50 nM in assay [6].
On to `CC(C)NC(=O)O[C@@H]1CC[C@H](c2cc(Nc3ccc4c(c3)S(=O)(=O)NC4)n[nH]2)C1` [Example 17, (1R,3S)-3-(3-((1,1-dioxido-2,3-dihydrobenzo[d]isothiazol-6-yl)amino)-1H-pyrazol-5-yl)cyclopentyl isopropylcarbamate], for which the IC50 is 50 to 500 nM in assay [1]; less than 50 nM in assay [2]; no more than 500 nM in assay [3]; less than 50 nM in assay [4]; no more than 500 nM in assay [5]; less than 50 nM in assay [6].
In the case of `CC(C)NC(=O)O[C@H]1CC[C@@H](c2cc(Nc3cccc4c3CCS4(=O)=O)n[nH]2)CC1` [Example 49, (1s,4s)-4-(3-((1,1-dioxido-2,3-dihydrobenzo[b]thiophen-4-yl)amino)-1H-pyrazol-5-yl)cyclohexyl isopropylcarbamate], the IC50 in assay [1] is greater than 1000 nM; in assay [2], 50 to 500 nM; in assay [3], no more than 500 nM; in assay [4], less than 50 nM; in assay [5], 500 to 1000 nM; in assay [6], less than 50 nM.
`CC(C)NC(=O)O[C@H]1CC[C@@H](c2cc(Nc3nccc4c3CCS4(=O)=O)n[nH]2)CC1` [Example 69, (1s,4s)-4-{5-[(1,1-dioxo-2,3-dihydro-1λ^6-thieno[3,2-c]pyridin-4-yl)amino]-1H-pyrazol-3-yl}cyclohexyl (prop-2-ylamino)methanoate]: the IC50 is greater than 1000 nM in assay [1]; 50 to 500 nM in assay [2]; 500 to 1000 nM in assay [3]; less than 50 nM in assay [4]; no less than 1000 nM in assay [5]; less than 50 nM in assay [6].
`CC(C)NC(=O)O[C@@H]1CC[C@H](c2cc(Nc3ccc4c(c3)N(C)S(=O)(=O)C4)n[nH]2)C1` [Example 41, (1R,3S)-3-{5-[(1-methyl-2,2-dioxo-1,3-dihydro-2X^6-benzo[2,1-c][1,2]thiazol-6-yl)amino]-2H-pyrazol-3-yl}cyclopentyl (prop-2-ylamino)methanoate]: the IC50 is 500 to 1000 nM in assay [1]; 50 to 500 nM in assay [2]; no more than 500 nM in assay [3]; less than 50 nM in assay [4]; no more than 500 nM in assay [5]; less than 50 nM in assay [6].
